{"source": "paper PMC11901700", "about": "“A Sweet Almond Globulin Multifunctional Peptide: Identification, In Silico Screening, Restraint Mechanisms to Keap1 and ACE, and Antihypertensive and Ferrous Transport Efficiency” (Nutrients, 2025)", "key": {"ABTS+ quenching ability": {"test": "ABTS+ quenching ability", "assay_type": "physicochemical", "details": "at 100 μg/mL; absorbance at 734 nm; mean ± standard error", "description": "The ABTS^+ quenching ability was determined following the same procedures described by Vásquez et al.. The same system without the sample was the control, and glutathione (0.1 mg/mL) was the comparison. The percentage of reduction in absorbance at 734 nm was defined as the ABTS^+ scavenging ability of samples."}, "[1]": {"test": "Hydroxyl radical scavenging activity (β-deoxyribose oxidation method)", "assay_type": "physicochemical", "details": "at 100 μg/mL", "description": "As described by Wang et al. and Vásquez et al., the hydroxyl (·OH) and superoxide ( O2−· ) radicals’ scavenging activity was measured using the β-deoxyribose oxidation and pyrogallol auto-oxidation methods, respectively. The comparison was conducted when the samples were replaced by glutathione (0.1 mg/mL)."}, "[2]": {"test": "Reducing power (potassium ferricyanide method)", "assay_type": "physicochemical", "details": "at 100 μg/mL, absorbance at 700 nm", "description": "The potassium ferricyanide method was employed to determine the reducing power of the SAGH peptides at the same conditions reported by Wang et al., where the absorbance at 700 nm represented the reducing power."}, "[3]": {"tested_on": "spontaneously hypertensive rats (SHRs)", "test": "Effects on blood pressures of spontaneously hypertensive rats", "assay_type": "in vivo, rat", "description": "Spontaneously hypertensive rats (SHRs, each weighting approximately 250 g, 14 weeks old) were obtained from Vitonglihua Test Animal Biotech. Co., Ltd. (Beijing, China) and used to investigate the hypotensive ability of ACE inhibitory and antioxidant SAGH peptides. After 7 days of adaptation, the SHRs were assigned to the blank, positive, SAGH peptides, and SAGH peptide–ferrous chelate groups (each group contained six SHRs), which were orally administered NaCl ([…]), captopril (14 mg per body weight kg), peptides (50, 150, and 200 mg per body weight kg), and peptide–ferrous chelates (50, 150, and 200 mg per body weight kg) every day, respectively. At 0, 120, 360, and 600 min after oral administration, the systolic and diastolic blood pressures and heart rates of the SHRs were measured using a NIBP-M1 Rat-tail noninvasive blood pressure monitor (Yuyan Scientific Instrument Co., Ltd., Shanghai, China) following the tail cuff method."}, "[4]": {"details": "listed as PMYGGGMV–ferrous chelates"}}, "note": "Where no end group is shown, it is not given here.", "data": [{"substance": "PMYGGGMV–ferrous chelate: chelate prepared by reacting the peptide with FeCl2 at pH 6.5 (also: ferrous iron chelate (reaction with FeCl2))", "values": [{"measurement": "ABTS+ Scavenging Activity (%) Before Gastrointestinal Digestion", "setting": "ABTS+ quenching ability", "value": "35.27 ± 2.45", "unit": "d %"}, {"measurement": "·OH Scavenging Activity (%) Before Gastrointestinal Digestion", "setting": "[1]", "value": "57.69 ± 0.07", "unit": "d %"}, {"measurement": "·OH Scavenging Activity (%) Before Gastrointestinal Digestion", "setting": "[1]; [4]", "value": 60.04, "unit": "%"}, {"measurement": "Reducing Power Before Gastrointestinal Digestion", "setting": "[2]", "value": "0.179 ± 0.003", "unit": "e"}, {"measurement": "Reducing Power Before Gastrointestinal Digestion", "setting": "[2]; [4]", "value": 0.179}, {"measurement": "dose dependence of blood pressure lowering effect", "setting": "[3]; oral, 50, 150 and 200 mg/kg body weight, p > 0.05", "value": "not dose-dependent"}, {"measurement": "effect on diastolic and systolic blood pressures", "setting": "[3]; oral, 50–200 mg/kg body weight, from 1 h of dosing, tail cuff method, p < 0.05", "value": "apparently lowered the diastolic and systolic blood pressures"}]}]}
